ChEMBL document CHEMBL1201862, “PubChem BioAssay data set” (2004)
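In this assay, cells in 96-well plates receive the compound at five concentrations for 48 hours. Endpoints are linearly interpolated between the surrounding concentrations. GI50 is the concentration that inhibits growth by half.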 The source made the active and inactive calls. Cut-off read from the data, not from the text of the source: active = GI50 up to about 1.1 µM and inactive = higher.

Experiments:
Test in all cases: NCI tumour cell line growth inhibition, 48 h
UACC-257 = test system: UACC-257
SNB-19 = test system: SNB-19
SW-620 = test system: SW-620
CAKI-1 = test system: CAKI-1
EKVX = test system: EKVX
RXF 393 = test system: RXF 393
MDA-N = test system: MDA-N
LOX IMVI = test system: LOX IMVI
PC-3 = test system: PC-3
SF-268 = test system: SF-268
SF-295 = test system: SF-295
HOP-92 = test system: HOP-92
T47D = test system: T47D
NCI-H23 = test system: NCI-H23
K562 = test system: K562
Malme-3M = test system: Malme-3M
HT-29 = test system: HT-29
SK-MEL-5 = test system: SK-MEL-5
NCI/ADR-RES = test system: NCI/ADR-RES
MDA-MB-435 = test system: MDA-MB-435
MDA-MB-231 = test system: MDA-MB-231
SF-539 = test system: SF-539
M14 = test system: M14
KM12 = test system: KM12
U-251 = test system: U-251
HOP-62 = test system: HOP-62
OVCAR-8 = test system: OVCAR-8
SK-MEL-2 = test system: SK-MEL-2
A549 = test system: A549
HCT-15 = test system: HCT-15
SK-OV-3 = test system: SK-OV-3
COLO 205 = test system: COLO 205
OVCAR-3 = test system: OVCAR-3
RPMI-8226 = test system: RPMI-8226
OVCAR-5 = test system: OVCAR-5
HCT-116 = test system: HCT-116
Hs-578T = test system: Hs-578T
NCI-H226 = test system: NCI-H226
CCRF-CEM = test system: CCRF-CEM
HL-60 = test system: HL-60
NCI-H522 = test system: NCI-H522
SNB-75 = test system: SNB-75
TK-10 = test system: TK-10
A498 = test system: A498
UO-31 = test system: UO-31
ACHN = test system: ACHN
SN12C = test system: SN12C
NCI-H460 = test system: NCI-H460
DU-145 = test system: DU-145
BT-549 = test system: BT-549
MOLT-4 = test system: MOLT-4
786-0 = test system: 786-0
IGROV-1 = test system: IGROV-1
SK-MEL-28 = test system: SK-MEL-28
UACC-62 = test system: UACC-62

## NNC1=N/C(=C\c2ccccc2O)C(=O)N1
UACC-257
  GI50: 49.2 µM (inactive)
SNB-19
  GI50: 73.3 µM (inactive)
SW-620
  GI50: 47.1 µM (inactive)
CAKI-1
  GI50: 60.3 µM (inactive)
EKVX
  GI50: 50.5 µM (inactive)
RXF 393
  GI50: 49.3 µM (inactive)
MDA-N
  GI50: 42.2 µM (inactive)
LOX IMVI
  GI50: 24.5 µM (inactive)
PC-3
  GI50: 49.2 µM (inactive)
SF-268
  GI50: 31 µM (inactive)
SF-295
  GI50: 36 µM (inactive)
HOP-92
  GI50: > 100 µM (inactive)
T47D
  GI50: 38.5 µM (inactive)
NCI-H23
  GI50: 53.6 µM (inactive)
K562
  GI50: 28.1 µM (inactive)
Malme-3M
  GI50: 43.9 µM (inactive)
HT-29
  GI50: 53.6 µM (inactive)
SK-MEL-5
  GI50: 35 µM (inactive)
NCI/ADR-RES
  GI50: 35.8 µM (inactive)
MDA-MB-435
  GI50: 61.4 µM (inactive)
MDA-MB-231
  GI50: 35.4 µM (inactive)
SF-539
  GI50: 25.4 µM (inactive)
M14
  GI50: 27.2 µM (inactive)
KM12
  GI50: 35.5 µM (inactive)
U-251
  GI50: 33.3 µM (inactive)
HOP-62
  GI50: 48.5 µM (inactive)
OVCAR-8
  GI50: 27.6 µM (inactive)
SK-MEL-2
  GI50: 63.8 µM (inactive)
A549
  GI50: 30.9 µM (inactive)
HCT-15
  GI50: 6.31 µM
SK-OV-3
  GI50: 31.7 µM (inactive)
COLO 205
  GI50: 29.6 µM (inactive)
OVCAR-3
  GI50: 35.1 µM (inactive)
RPMI-8226
  GI50: 24 µM (inactive)
OVCAR-5
  GI50: 65.3 µM (inactive)
HCT-116
  GI50: 34.4 µM (inactive)
Hs-578T
  GI50: > 100 µM (inactive)
NCI-H226
  GI50: 47.5 µM (inactive)
CCRF-CEM
  GI50: 9.12 µM (inactive)
HL-60
  GI50: 14.6 µM (inactive)
NCI-H522
  GI50: 35.3 µM (inactive)
SNB-75
  GI50: > 100 µM (inactive)
TK-10
  GI50: 60.1 µM (inactive)
A498
  GI50: > 100 µM (inactive)
UO-31
  GI50: 16.6 µM (inactive)
ACHN
  GI50: 30.9 µM (inactive)
SN12C
  GI50: 40.7 µM (inactive)
NCI-H460
  GI50: 20.2 µM (inactive)
DU-145
  GI50: 34.9 µM (inactive)
BT-549
  GI50: 37.9 µM (inactive)
MOLT-4
  GI50: 21.5 µM (inactive)
786-0
  GI50: 20.7 µM (inactive)
IGROV-1
  GI50: 36.2 µM (inactive)
SK-MEL-28
  GI50: 60.8 µM (inactive)
UACC-62
  GI50: 48.1 µM (inactive)
